Key:
[1] = test system: Wistar rats; test: Subacute toxicity: water and electrolyte balance (osmolality, sodium, potassium, urinary flow); assay type: in vivo; details: for Filtered Load of Potassium / Filtered Load of Sodium / Fractional Excretion of Potassium / Fractional Excretion of Sodium / Serum Osmolality / Serum Potassium / Serum Sodium / U/S Osm ratio / Urinary Flow Rate / Urinary Potassium Excretion / Urinary Sodium Excretion: rats, p.o., 14 days at 10% of LD50 (CCl4, APAP: once daily, 3 days), mean ± SEM, n = 6; for osmolar clearance, change in words / freewater clearance, change in words: compared to the control group; for freewater clearance, change in words: significant by PLS VIP and ANOVA
Procedure: (§1) For toxicity tests, acclimatized rats were randomly allocated to 12 groups (n = 12 for the control and n = 6 for the rest groups). […] Meanwhile, the aforementioned vehicles (dose volume 2 mL/kg b.w.) were administered to 3 groups. […] The animals were then housed in individual metabolic cages to collect urine for a period of 6 h and then the volume was recorded. Afterward, blood samples were obtained and the serum was separated by centrifugation at 1,620 × g for 10 min at room temperature.
Osmolality of serum and urine were assessed (in triplicate) by using a vapor pressure osmometer (Wescor 5500, Logan, United States). U/S ratio as well as osmolar (COsm) and free water clearances were calculated via conventional equations:where UOsm and SOsm are the osmolality values (mOsm/Kg) in urine and serum, respectively, and φ is the UFR (mL/min).
(§2) The levels of sodium and potassium were measured in urine and serum using a flame photometer (Corning 400, Medfield, United States). Calculation was made of the clearance, fractional excretion, and filtered load of sodium (FLS), filtered load of potassium (FLP), and filtered load of glucose (FLG) using the conventional equations:where CX is the clearance rate of X (mL/min), CCr is the creatinine clearance rate (mL/min), UX and SX are the […] concentrations of X, respectively, φ is the UFR (mL/min), FEX is the fractional excretion (%) of X, and FLX is the filtered load of X in μEq/min (Na^+ or K^+) or mg/min (glucose).

[2] = test system: NIH mice; test: Acute oral toxicity, median lethal dose (LD50); assay type: in vivo; details: for Category (GHS acute oral toxicity hazard category) / Hazard statement (GHS): based on oral LD50, according to GHS [39]; for Oral LD50: female NIH mice, single oral dose, 14 days observation
Procedure: All treatments were administrated orally (p.o.) according to the scheme mentioned below.
Acute toxicity tests were performed in order to measure the median lethal dose (LD50). After acclimatization, mice were randomly allocated to ten groups (n = 4), including the control group (e.g. water, Tween 80, or PO) and the experimental groups, each with a single dose of one of the IMPYs at 4 levels of dose (0.5, 1.0, 2.0, and 4.0 g/kg b.w.).
Animals were food deprived overnight prior to administration of the chemical compounds or vehicles, and food was returned 4 h after dosing. Animals had access to water ad libitum throughout the study.[27]^,[28]

[3] = test system: renal secretory pathway of organic anions; test: Active tubular secretion of organic acids (PAH uptake in kidney cortex slices); assay type: in vivo, rats; details: for PAH t/m ratio: kidney cortex slices, PAH 1 mM, 1 h, 25 °C, rats, p.o., 14 days at 10% of LD50 (CCl4, APAP: once daily, 3 days), mean ± SEM, n = 6
Procedure: (§3) For toxicity tests, acclimatized rats were randomly allocated to 12 groups (n = 12 for the control and n = 6 for the rest groups). […] Meanwhile, the aforementioned vehicles (dose volume 2 mL/kg b.w.) were administered to 3 groups. […] Upon completion of the 14-day treatments and before sample collection, the bladders of animals were emptied by gentle pressure on the lower part of the abdomen to induce urination. The animals were then housed in individual metabolic cages to collect urine for a period of 6 h and then the volume was recorded. Afterward, blood samples were obtained and the serum was separated by centrifugation at 1,620 × g for 10 min at room temperature.
p-Aminohippuric acid (PAH) was used as an indicator of the renal secretory pathway of organic anions. Kidneys were extracted and immediately submerged in Ringer solution (pH = 7.4 and mOsm = 290 ± 10 mOsm/kg) under constant bubbling with O2/CO2 (95/5%). The kidneys were decapsulated and slices of the kidney cortex were obtained, which were then incubated in Ringer solution containing PAH (1 mM) for 1 h at 25 °C under constant bubbling with O2/CO2 (95/5%). The levels of PAH were quantified with the Bratton-Marshall method and results were expressed as the PAH tissue/medium ratio (PAH t/m ratio).[31]^,[32]

[4] = test system: Wistar rats; test: Subacute toxicity: serum and urine glucose, urinary protein excretion; assay type: in vivo; details: for Filtered Load of Glucose / Fractional Excretion of Glucose / Serum Glucose / Urinary Glucose Excretion / Urinary Protein Excretion: rats, p.o., 14 days at 10% of LD50 (CCl4, APAP: once daily, 3 days), mean ± SEM, n = 6
Procedure: as §1
Serum and urine glucose concentration were calculated using GOD-PAP kits (RANDOX, Laboratories Ltd, UK). Urinary protein was quantified using the Bradford method.[29]
(§4) Serum and urinary creatinine were determined by the Jaffe method. With this value, evaluation was made of the fractional excretion of sodium (FES), fractional excretion of potassium (FEP), and fractional excretion of glucose.[30]^,[31] The GFR was calculated from clearance of endogenous creatinine using the conventional equation:where GFR (CCr) is the creatinine clearance rate (mL/min); UCr and SCr are the creatinine concentrations (mg/dL) in urine and serum, respectively; and φ is the urinary flow rate (UFR) (mL/min). To avoid the error from the tubular secretion of creatinine found in males, only female animals were used.
as §2

[5] = test system: Wistar rats; test: Subacute toxicity: serum alanine aminotransferase and alkaline phosphatase activity; assay type: in vivo; details: for Alanine Aminotransferase / Alkaline Phosphatase: serum, rats, p.o., 14 days at 10% of LD50 (CCl4, APAP: once daily, 3 days), mean ± SEM, n = 6
Procedure: as §3
The activities of serum alanine aminotransferase (ALT) and alkaline phosphatase (ALP) were measured with standard kits (RANDOX, Laboratories Ltd, UK).

[6] = test system: Wistar rats; test: Subacute toxicity: glomerular filtration rate (creatinine clearance) and serum creatinine; assay type: in vivo; details: for Glomerular Filtration Rate / Serum Creatinine: rats, p.o., 14 days at 10% of LD50 (CCl4, APAP: once daily, 3 days), mean ± SEM, n = 6
Procedure: as §1, §4

[7] = test system: Wistar rats; test: Hepatic and renal reactive oxygen species (DCF formation); assay type: in vivo; details: rats, p.o., 14 days at 10% of LD50 (CCl4, APAP: once daily, 3 days), mean ± SEM, n = 6; for Renal ROS: kidney; for Hepatic ROS: liver
Procedure: as §3
Reactive oxygen species (ROS) were measured by formation of 2′,7′-dichlorofluorescein (DCF). An aliquot of 10 μL (kidney) or 5 μL (liver) of the homogenates was added to 1,940 or 1,945 μL of TRIS:HEPES (18:1) and was incubated in the presence of 50 μL of 2′,7′-dichlorofluorescein diacetate for 1 h at 37 °C. In order to quench the reaction, the mixture was chilled using an ice bath. The fluorescence was measured using a Shimadzu fluorometer (Japan; λex = 488 nm; λem = 525 nm). The results were expressed as nM DCF formed per mg protein/h.[33]
(§5) The protein concentration in homogenates was measured by the Bradford method.[29]

[8] = test system: Wistar rats; test: Hepatic and renal lipid peroxidation (lipid-soluble fluorescence); assay type: in vivo; details: for Renal Lipoperoxidation: kidney; for Renal Lipoperoxidation / Hepatic Lipoperoxidation: rats, p.o., 14 days at 10% of LD50 (CCl4, APAP: once daily, 3 days), mean ± SEM, n = 6; for Hepatic Lipoperoxidation: liver
Procedure: as §3
Lipid peroxidation (LPO) was evaluated by the formation of lipid-soluble fluorescence, as previously described. Briefly, kidney and liver tissues were homogenized in 3 and 5 mL of phosphate buffer (0.2 M, pH = 7.4), respectively. A volume of 1 mL (kidney) or 0.8 mL (liver) of the homogenates was added to 7 mL of chloroform-methanol (2:1, v/v), and after 15 s of vortex mixing, the resulting mixture was cooled using an ice bath for 30 min to allow for phase separation. The fluorescence of the organic phase was measured using a Shimadzu fluorometer (Japan; λex = 370 nm; λem = 430 nm), whose sensitivity was adjusted to 140 fluorescence units by using 1 μg/mL of quinine sulfate in 50 mM H2SO4. The results were expressed as relative fluorescence units per milligram of protein.[33]
as §5

[9] = in comparison with the control group

SMILES	Filtered Load of Potassium [1] [µEq/min]	Filtered Load of Sodium [1] [µEq/min]	Fractional Excretion of Potassium [1] [%]	Fractional Excretion of Sodium [1] [%]	Serum Osmolality [1] [mOsm/kg]	Serum Potassium [1] [mEq/L]	Serum Sodium [1] [mEq/L]	U/S Osm ratio [1]	Urinary Flow Rate [1] [µL/min]	Urinary Potassium Excretion [1] [µEq/min]	Urinary Sodium Excretion [1] [µEq/min]	Category (GHS acute oral toxicity hazard category) [2]	Hazard statement (GHS) [2]	Oral LD50 [2] [g/kg b.w.]	PAH t/m ratio [3]	Filtered Load of Glucose [4] [mg/min]	Fractional Excretion of Glucose [4] [%]	Serum Glucose [4] [mg/dL]	Urinary Glucose Excretion [4] [ng/min]	Urinary Protein Excretion [4] [µg/min]	other results
N#Cc1cn2ccccc2n1 [Compound 2a, imidazo[1,2-a]pyridine-2-carbonitrile]	5.07 ± 1.44	124.49 ± 40.90	13.55 ± 1.23	0.55 ± 0.13	291.74 ± 1.34	6.03 ± 0.31	142.94 ± 3.88	3.30 ± 0.22	6.44 ± 1.39	0.64 ± 0.16	0.51 ± 0.09	4	Harmful if swallowed	0.794	1.07 ± 0.11	0.90 ± 0.29	0.02 ± 3.9E-3	103.46 ± 3.16	136.89 ± 32.82	0.65 ± 0.13	PAH t/m ratio, change in words ([3]; versus control (2a also versus Tween 80 and 2b)): decreased; Alanine Aminotransferase [5]: 42.68 ± 2.04 U/L; Alkaline Phosphatase [5]: 104.44 ± 19.76 U/L; Glomerular Filtration Rate [6]: 0.86 ± 0.28 mL/min; Serum Creatinine [6]: 0.66 ± 0.13 mg/dL; Renal ROS [7]: 171.33 ± 22.04 nM de DCF/mg protein/h; Hepatic ROS [7]: 285.53 ± 42.87 nM de DCF/mg protein/h; Renal Lipoperoxidation [8]: 0.30 ± 0.02 URF/mg protein; Hepatic Lipoperoxidation [8]: 0.71 ± 0.04 URF/mg protein
N#Cc1nc2ccccn2c1[N+](=O)[O-] [Compound 2b, 3-nitroimidazo[1,2-a]pyridine-2-carbonitrile]	10.21 ± 1.12	267.24 ± 51.35	13.47 ± 1.95	0.88 ± 0.29	288.93 ± 1.51	5.79 ± 0.31	141.65 ± 15.47	3.44 ± 0.10	8.29 ± 1.67	1.38 ± 0.21	1.87 ± 0.39	4	Harmful if swallowed	1.606	2.11 ± 0.20	2.29 ± 0.33	0.01 ± 1.8E-3	126.47 ± 5.03	109.06 ± 24.61	0.86 ± 0.20	urinary sodium excretion (USE), change in words ([1]; 2b versus control, tween 80, and 2a, 4 versus control): higher; potassium clearance, change in words ([1]; compared to the control (2b also versus 2a)): increased; urinary potassium excretion (UPE), change in words ([1]; compared to the control and 2a): increased; osmolar clearance, change in words [1]: greater; freewater clearance, change in words [1]: lower; UFR (urinary flow rate), change in words [1, 9]: increased; FES (fractional excretion of sodium), change in words ([1]; in comparison with tween 80): increased; sodium clearance, change in words ([1]; versus control, tween 80, and 2a): higher; FLG (filtered load of glucose), change in words ([4]; versus 2a): increased; serum ALP, change in words ([5]; compared to the control (CCl4 also versus PO)): greater; Alanine Aminotransferase [5]: 44.90 ± 2.46 U/L; Alkaline Phosphatase [5]: 192.21 ± 38.07 U/L; Glomerular Filtration Rate [6]: 1.81 ± 0.26 mL/min; Serum Creatinine [6]: 0.56 ± 0.08 mg/dL; Renal ROS [7]: 225.78 ± 56.22 nM de DCF/mg protein/h; Hepatic ROS [7]: 208.65 ± 30.24 nM de DCF/mg protein/h; renal LPO, change in words ([8]; compared to the control group (CCl4 also versus PO)): greater; Renal Lipoperoxidation [8]: 0.47 ± 0.03 URF/mg protein; Hepatic Lipoperoxidation [8]: 0.64 ± 0.10 URF/mg protein
O=C(O)c1cn2ccccc2n1 [Compound 3a, imidazo[1,2-a]pyridine-2-carboxylic acid]	1.98 ± 0.44	40.07 ± 7.62	27.89 ± 6.73	0.53 ± 0.16	304.73 ± 1.82	6.83 ± 0.54	148.12 ± 3.02	3.18 ± 0.61	2.20 ± 0.50	0.50 ± 0.12	0.17 ± 0.05	5	May be harmful if swallowed	> 2.000	2.25 ± 0.10	0.22 ± 0.03	0.05 ± 0.01	80.56 ± 2.31	92.91 ± 12.35	0.69 ± 0.14	osmolar clearance, change in words [1]: lower; freewater clearance, change in words [1]: greater; FLS (filtered load of sodium), change in words [1, 9]: decreased; FEG (fractional excretion of glucose), change in words ([4]; compared to control values): increased; FLG (filtered load of glucose), change in words ([4]; compared to control values): reduced; Alanine Aminotransferase [5]: 25.62 ± 1.27 U/L; Alkaline Phosphatase [5]: 93.76 ± 13.08 U/L; GFR, change in words ([6]; in comparison to the control group): lower; Glomerular Filtration Rate [6]: 0.28 ± 0.04 mL/min; Serum Creatinine [6]: 1.05 ± 0.05 mg/dL; Renal ROS [7]: 159.65 ± 14.96 nM de DCF/mg protein/h; Hepatic ROS [7]: 349.63 ± 18.87 nM de DCF/mg protein/h; Renal Lipoperoxidation [8]: 0.29 ± 0.03 URF/mg protein; Hepatic Lipoperoxidation [8]: 0.79 ± 0.03 URF/mg protein

Reference: publication PMC9618103, “Exploratory toxicology studies of 2,3-substituted imidazo[1,2-a]pyridines with antiparasitic and anti-inflammatory properties” (Toxicology Research, 2022)
